Results as given in US12533361B2, “Use of polaprezinc in preparing drug for treating castration-resistant prostate cancer” (Jiangnan University, priority 2021, dated 2026).

What was measured:
L-DTP (EPI) cells = assay: CCK8 survival of drug-resistant L-DTP (EPI) cells, single and combined drugs; format: cell-based; conditions: drug-resistant L-DTP (EPI) cells produced by continuously adding EPI for 9 days, optimal concentration of Pola
Experimental: (§1) Furthermore, CCK8 is used and drugs are used in drug-resistant L-DTP cells in a single form and combined form separately.
(§2) After the cells adhered to walls, a series of Pola from high to low concentrations were prepared. A most optimal concentration of the Pola was found. […] Cl values of the L-DTP cells were calculated by Calcusyn software.

L-DTP (Enza) cells = assay: CCK8 survival of drug-resistant L-DTP (Enza) cells, single and combined drugs; format: cell-based; conditions: drug-resistant L-DTP (Enza) cells produced by continuously adding Enza for 9 days, optimal concentration of Pola
Experimental: as §1, §2

[1] = system: mouse model of spontaneous prostate cancer with overexpression of C-MYC (Hi-Myc); assay: Hi-Myc mouse model of prostate cancer, prostate weight and HE staining (Example 4); format: in vivo; conditions: for Average prostate weight of mice: 30 days administration after relapse caused by drug resistance, gavage once every three days, Enza 10 mg/Kg, Pola 20 mg/Kg, combined 10 + 20 mg/Kg, NC group 100.1 mg; for average prostate weight: 10 mg/Kg gavage once every three days
Description: A mouse model of spontaneous prostate cancer with overexpression of C-MYC (Hi-Myc) was established. […] A part of the mice were sacrificed and their prostate cancers were photographed and weighed. […]. The remaining mice were continuously administered according to the above method for 30 days. […]. […] At this time, the mice were divided into different groups immediately to study effects of combined use of drugs.
(§3) The mice were correspondingly gavaged. […] The mice were sacrificed and their prostate cancers were photographed, weighed and subjected to immunohistochemistry.

PRDX5 = assay: Immunohistochemistry of PRDX5 in prostate tissue sections (Example 4); format: in vivo, mouse; conditions: 30 days administration after relapse, Enza 10 mg/Kg, Pola 20 mg/Kg, combined 10 + 20 mg/Kg, NC group 61.7
Description: as §3

[2] = system: mouse model of spontaneous prostate with overexpression of C-MYC (Hi-Myc); assay: Hi-Myc mouse model of prostate cancer, prostate weight (Example 5); format: in vivo; conditions: for Average prostate weight of mice: 30 days administration after relapse, gavage once every three days, Enza 30 mg/Kg, Pola 30 mg/Kg, combined Enza 10 mg/Kg + Pola 20 mg/Kg, NC group 105.4 mg
Description: A mouse model of spontaneous prostate with overexpression of C-MYC (Hi-Myc) was established. […] A part of the mice were sacrificed and their prostate cancers were photographed and weighed. […] The remaining mice were continuously administered according to the above method for 30 days. […] The mice were correspondingly gavaged. […] The mice were sacrificed and their prostate cancers were photographed, weighed and subjected to immunohistochemistry.

AR = assay: Immunohistochemistry of AR in prostate tissue sections (Example 4); format: in vivo, mouse; conditions: 30 days administration after relapse, Enza 10 mg/Kg, Pola 20 mg/Kg, combined 10 + 20 mg/Kg, NC group 94
Description: as §3

[3] = 10 mg/Kg gavage once every three days for 30 days

SMILES | inhibition rate (L-DTP (EPI) cells) | inhibition rate (L-DTP (Enza) cells) | prostate weight compared with the NC group [1, 3] | Average prostate weight of mice [1] | average prostate weight ([1]; after 30 days of continuous administration, NC group 85.3 mg) | average prostate weight ([1]; after 60 days of continuous administration, relapse, NC group 95.6 mg) | Expression amount of PRDX5/% (PRDX5) | prostate weight compared with the NC group [2, 3] | Average prostate weight of mice [2] | Expression amount of AR/% (AR) | effect on drug-resistant CRPC (prostate weight, in words) ([1]; 30 days administration after relapse, compared with single use / between single groups)
CC(C)(c1ccc(OCC(O)CO)cc1)c1ccc(OCC(O)CCl)cc1 (stereo not drawn) [EPI, EPI-001] | no obvious inhibitory effect | – | – | – | – | – | – | – | – | – | –
CNC(=O)c1ccc(N2C(=S)N(c3ccc(C#N)c(C(F)(F)F)c3)C(=O)C2(C)C)cc1F [Enza, enzalutamide] | – | no obvious inhibitory effect | reduced by half | 83.3 mg | 41.2 mg | 78.4 mg | 93.6% | reduced by half | 85.9 mg | – | –
NCCC(=O)[N-][C@@H](Cc1c[nH]cn1)C(=O)[O-].[Zn+2] [Pola, polaprezinc] | no obvious inhibition rate | no obvious inhibition rate | – | 80.625 mg | – | – | 74.2% | – | 81.2 mg | 70.4% | does not have a significant effect
